{
  "source": "paper PMC6792352",
  "about": "“Limited Chemical Structural Diversity Found to Modulate Thyroid Hormone Receptor in the Tox21 Chemical Library” (Environmental Health Perspectives, 2019)",
  "note": "Counter-ions that a name gives are not always drawn.",
  "data": [
    {"test": "in vitro", "settings": "rat, gh3-tre-luc cells, AC50 (uM) modified / 1000", "units": {"CC50 at 24 h": "µM"}, "values": [
      {"smiles": "Cc1cc(O)c(C(C)(C)C)cc1C(C)(C)C", "note": "[4,6-Di-tert-butyl-m-cresol]", "CC50 at 24 h": 22.6},
      {"smiles": "CC(C)=CCC/C(C)=C\\C#N", "note": "[(2Z)-3,7-Dimethylocta-2,6-dienenitrile]", "CC50 at 24 h": "> 90"},
      {"smiles": "CC(C)(c1ccc(Oc2ccc3c(c2)C(=O)OC3=O)cc1)c1ccc(Oc2ccc3c(c2)C(=O)OC3=O)cc1", "note": "[2,2-Bis(4-(3,4-dicarboxyphenoxy)phenyl)propane dianhydride]", "CC50 at 24 h": "> 90"},
      {"smiles": "CC(O)CN(CCN(CC(C)O)CC(C)O)CC(C)O", "note": "(stereo not shown) [N,N,N',N'-Tetrakis(2-Hydroxypropyl)ethylenediamine]", "CC50 at 24 h": "> 90"},
      {"smiles": "O=S(O)CNc1ccc(S(=O)(=O)c2ccc(NCS(=O)O)cc2)cc1", "note": "[Adesulfone sodium]", "CC50 at 24 h": "> 50"},
      {"smiles": "NCCCC(N)(C(=O)O)C(F)F", "note": "(stereo not shown) [Eflornithine hydrochloride]", "CC50 at 24 h": "> 50"},
      {"smiles": "O=C(NC(=O)c1c(F)cccc1F)Nc1cc(Cl)c(OC(F)(F)C(F)C(F)(F)F)cc1Cl", "note": "(stereo not shown) [Lufenuron]", "CC50 at 24 h": "> 90"},
      {"smiles": "Cc1ccccc1C(=O)Nc1cccc(OC(C)C)c1", "note": "[Mepronil]", "CC50 at 24 h": "> 90"},
      {"smiles": "O=C1c2ccccc2C(=O)c2c(O)ccc(O)c21", "note": "[1,4-Dihydroxyanthracene-9,10-dione]", "CC50 at 24 h": "> 90"},
      {"smiles": "CCCC(=O)O[C@]1(C(=O)COC(C)=O)CC[C@H]2[C@@H]3C[C@H](F)C4=CC(=O)C=C[C@]4(C)[C@@]3(F)[C@@H](O)C[C@@]21C", "note": "[Difluprednate]", "CC50 at 24 h": "> 50"},
      {"smiles": "COc1c(O[C@@H]2O[C@H](CO)[C@@H](O)[C@H](O)[C@H]2O)cc2c(c1OC)-c1ccc(SC)c(=O)cc1[C@@H](NC(C)=O)CC2", "note": "[Thiocolchicoside]", "CC50 at 24 h": "> 20"},
      {"smiles": "CCN(CC)CCOC(=O)C(c1ccccc1)C1CCCCC1", "note": "(stereo not shown) [Drofenine hydrochloride]", "CC50 at 24 h": 21.1},
      {"smiles": "CC(=O)/C=C/C1C(C)=CCCC1(C)C", "note": "(stereo not drawn) [alpha-Ionone]", "CC50 at 24 h": "> 90"},
      {"smiles": "Cc1nc([N+](=O)[O-])cn1-c1ccc([N+](=O)[O-])cc1", "note": "[Nitrefazole]", "CC50 at 24 h": "> 50"},
      {"smiles": "CCCCC(CC)COC(=O)CC#N", "note": "(stereo not shown) [2-Ethylhexyl cyanoacetate]", "CC50 at 24 h": "> 90"},
      {"smiles": "O=c1ccc2cc(O[C@@H]3O[C@H](CO)[C@@H](O)[C@H](O)[C@H]3O)c(O)cc2o1", "note": "[Esculin]", "CC50 at 24 h": "> 20"},
      {"smiles": "CCC(C)(C)C1CCC(=O)CC1", "note": "[4-(tert-Pentyl)-cyclohexanone]", "CC50 at 24 h": "> 90"},
      {"smiles": "COCCOCCOC", "note": "[Diethylene glycol dimethyl ether]", "CC50 at 24 h": "> 90"},
      {"smiles": "COP(=O)(OC)OC(c1ccc(Cl)cc1)P(=O)(OC)OC", "note": "(stereo not shown) [Mifobate]", "CC50 at 24 h": "> 50"},
      {"smiles": "COc1ccc(/C=C/C(=O)c2ccc(OC)cc2OC)cc1", "note": "[Metochalcone]", "CC50 at 24 h": 46.1},
      {"smiles": "CCN(CC)Cc1cc(Nc2ccnc3cc(Cl)ccc23)ccc1O", "note": "[Amodiaquin dihydrochloride dihydrate]", "CC50 at 24 h": 13.5},
      {"smiles": "C=C(C)C(=O)OCCC[Si](Cl)(Cl)Cl", "note": "[3-(Trichlorosilyl)propyl methacrylate]", "CC50 at 24 h": "> 90"},
      {"smiles": "Cc1cccc(NC(=S)N(C)C)c1", "note": "[Methiuron]", "CC50 at 24 h": "> 90"},
      {"smiles": "CC[N+](C)(CC)CCOC(=O)C1c2ccccc2Oc2ccccc21", "note": "[Methantheline bromide]", "CC50 at 24 h": "> 50"},
      {"smiles": "Sc1ncnc2nc[nH]c12", "note": "[6-Mercaptopurine monohydrate]", "CC50 at 24 h": "> 90"},
      {"smiles": "CCN(CCCc1ccccc1)CCCc1ccccc1", "note": "[Alverine citrate]", "CC50 at 24 h": "> 20"},
      {"smiles": "Nc1nc(N)nc(NC2CC2)n1", "note": "[Cyromazine]", "CC50 at 24 h": "> 90"},
      {"smiles": "N#Cc1cccnc1", "note": "[3-Pyridinecarbonitrile]", "CC50 at 24 h": "> 90"},
      {"smiles": "COC(=O)c1cccc(Cl)c1", "note": "[Methyl 3-chlorobenzoate]", "CC50 at 24 h": "> 90"}
    ]},
    {"test": "in vitro", "settings": "rat, gh3-tre-luc cells, AC50 (uM) modified / 1000, Tox21_110001=Tox21_200721; viability, 1 nM T3 present, 24 h", "units": {"CC50 at 24 h": "µM"}, "values": [
      {"smiles": "c1ccc2cc3c(cc2c1)-c1cccc2cccc-3c12", "note": "[Benzo(k)fluoranthene]", "CC50 at 24 h": "> 90"}
    ]},
    {"test": "in vitro", "settings": "rat, gh3-tre-luc cells, AC50 (uM) modified / 1000, Tox21_110001=Tox21_201195; viability, 1 nM T3 present, 24 h", "units": {"CC50 at 24 h": "µM"}, "values": [
      {"smiles": "COc1c(C(C)(C)C)cc([N+](=O)[O-])c(C)c1[N+](=O)[O-]", "note": "[Musk ambrette]", "CC50 at 24 h": "> 90"}
    ]},
    {"test": "in vitro", "settings": "rat, gh3-tre-luc cells, AC50 (uM) modified / 1000, Tox21_110001=Tox21_202175; viability, 1 nM T3 present, 24 h", "units": {"CC50 at 24 h": "µM"}, "values": [
      {"smiles": "Nc1ccccc1C(=O)OCCc1ccccc1", "note": "[Phenethyl anthranilate]", "CC50 at 24 h": "> 90"}
    ]},
    {"test": "in vitro", "settings": "rat, gh3-tre-luc cells, AC50 (uM) modified / 1000, Tox21_110001=Tox21_300910; viability, 1 nM T3 present, 24 h", "units": {"CC50 at 24 h": "µM"}, "values": [
      {"smiles": "COP(=S)(OC)Oc1cc(Cl)c(I)cc1Cl", "note": "[Iodenphos]", "CC50 at 24 h": "> 90"}
    ]},
    {"test": "in vitro", "settings": "rat, gh3-tre-luc cells, AC50 (uM) modified / 1000, Tox21_110001=Tox21_301568; viability, 1 nM T3 present, 24 h", "units": {"CC50 at 24 h": "µM"}, "values": [
      {"smiles": "CCC1COC(Cn2cncn2)(c2ccc(Cl)cc2Cl)O1", "note": "(stereo not shown) [Etaconazole]", "CC50 at 24 h": "> 90"}
    ]}
  ]
}
